Experimental data: patent US8524702B2, “Substituted benzoazepines as toll-like receptor modulators” (VentiRx Pharmaceuticals, Inc., priority 2009, dated 2013)

Target: T1, TLR8 (Homo sapiens, UniProt Q9NR97)
T1 sequence (Q9NR97 27-1041): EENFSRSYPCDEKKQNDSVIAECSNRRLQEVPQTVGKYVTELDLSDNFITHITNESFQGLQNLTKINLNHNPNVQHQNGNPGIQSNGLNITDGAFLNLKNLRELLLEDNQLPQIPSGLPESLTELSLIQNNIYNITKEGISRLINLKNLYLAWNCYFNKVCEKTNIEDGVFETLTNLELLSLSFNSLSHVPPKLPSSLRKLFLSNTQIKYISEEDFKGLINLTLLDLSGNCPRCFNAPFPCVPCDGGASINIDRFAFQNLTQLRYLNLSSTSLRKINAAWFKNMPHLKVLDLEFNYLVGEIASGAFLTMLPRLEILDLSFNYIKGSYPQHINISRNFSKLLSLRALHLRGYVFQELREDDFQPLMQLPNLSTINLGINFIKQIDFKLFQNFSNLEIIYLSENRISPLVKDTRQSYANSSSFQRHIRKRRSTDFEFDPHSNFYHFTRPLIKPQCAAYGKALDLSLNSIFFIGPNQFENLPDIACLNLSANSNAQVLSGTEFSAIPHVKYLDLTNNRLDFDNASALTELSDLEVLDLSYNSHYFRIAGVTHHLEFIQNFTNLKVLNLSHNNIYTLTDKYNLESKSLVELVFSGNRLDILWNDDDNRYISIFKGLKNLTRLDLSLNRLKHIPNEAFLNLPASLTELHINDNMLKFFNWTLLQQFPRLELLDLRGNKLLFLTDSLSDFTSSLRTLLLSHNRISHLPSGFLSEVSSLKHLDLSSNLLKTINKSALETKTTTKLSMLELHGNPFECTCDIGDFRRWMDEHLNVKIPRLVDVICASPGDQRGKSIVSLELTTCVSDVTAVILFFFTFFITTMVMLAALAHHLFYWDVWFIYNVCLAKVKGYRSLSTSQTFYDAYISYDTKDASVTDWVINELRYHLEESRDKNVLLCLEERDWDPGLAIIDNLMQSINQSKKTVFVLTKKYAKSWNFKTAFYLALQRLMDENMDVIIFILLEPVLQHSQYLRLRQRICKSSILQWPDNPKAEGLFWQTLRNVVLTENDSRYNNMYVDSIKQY
Experiment: PBMC assay for TLR8 (TNFα in supernatants by ELISA)
Assay type: cell-based
Set-up: Peripheral blood mononuclear cells (PBMCs) from human blood were isolated; endogenous in cells; host or cells: human PBMCs
Conditions: human PBMCs incubated with compound overnight, MC50 = concentration at which 50% of the maximum induction is seen
Method: Peripheral blood mononuclear cells (PBMCs) from human blood were isolated using BD Vacutainer Cell Preparation Tubes with sodium citrate. Cells were incubated with compound overnight. TLR8 activity was assayed by measuring the amount of TNFα in supernatants by ELISA. TLR7 activity was assayed by measuring the amount of IFNα in supernatants by ELISA (R&D Systems). […] The results of this assay are shown below in Tables 2 and 3.
MC50 numbers are represented as factors of ten, for example, + indicates an MC50 value of ×10^4, or a value in the tens of thousands of nanomolar (nM range); ++ indicates an MC50 value of ×10^3, or a value in the thousands; +++ indicates an MC50 value of ×10^2, or a value in the hundreds; and ++++ indicates an MC50 value of ×10^1 or 10°, or a value in the tens or ones.

| EC50 | SMILES |
| --- | --- |
| 100 to 1000 nM | CCCNC(=O)C1=Cc2ccc(-c3ccc(C(=O)N4CCCC4)cc3)cc2N=C(N)C1 [Compound 101, (1E,4E)-2-amino-N-propyl-8-(4-(pyrrolidine-1-carbonyl)phenyl)-3H-benzo[b]azepine-4-carboxamide] |
| 100 to 1000 nM | CCCN(C(=O)C1=Cc2ccc(-c3ccc(C(=O)N4CCCC4)cc3)cc2N=C(N)C1)C(C)CC (stereo not shown) [Compound 102, (1E,4E)-2-amino-N-sec-butyl-N-propyl-8-(4-(pyrrolidine-1-carbonyl)phenyl)-3H-benzo[b]azepine-4-carboxamide] |
| 1 to 100 nM | CCCN(CCO)C(=O)C1=Cc2ccc(-c3ccc(C(=O)N4CCCC4)cc3)cc2N=C(N)C1 [Compound 107, (1E,4E)-2-amino-N-(2-hydroxyethyl)-N-propyl-8-(4-(pyrrolidine-1-carbonyl)phenyl)-3H-benzo[b]azepine-4-carboxamide] |
| 1000 to 10000 nM | CCCN(CC(O)CO)C(=O)C1=Cc2ccc(-c3ccc(C(=O)N4CCCC4)cc3)cc2N=C(N)C1 (stereo not shown) [Compound 110, (1E,4E)-2-amino-N-(2,3-dihydroxypropyl)-N-propyl-8-(4-(pyrrolidine-1-carbonyl)phenyl)-3H-benzo[b]azepine-4-carboxamide] |
| 1000 to 10000 nM | NC1=Nc2cc(-c3ccc(C(=O)N4CCCC4)cc3)ccc2C=C(C(=O)N(C2CCNCC2)C2CC2)C1 [Compound 115, (1E,4E)-2-amino-N-cyclopropyl-N-(piperidin-4-yl)-8-(4-(pyrrolidine-1-carbonyl)phenyl)-3H-benzo[b]azepine-4-carboxamide] |
| 1000 to 10000 nM | COCCN(CCOC)C(=O)C1=Cc2ccc(-c3ccc(C(=O)N4CCCC4)cc3)cc2N=C(N)C1 [Compound 120, (1E,4E)-2-amino-N,N-bis(2-methoxyethyl)-8-(4-(pyrrolidine-1-carbonyl)phenyl)-3H-benzo[b]azepine-4-carboxamide] |
| 10000 to 100000 nM | NC1=Nc2cc(-c3ccc(C(=O)N4CCCC4)cc3)ccc2C=C(C(=O)N2CCCC2)C1 [Compound 121, (4-((1E,4E)-2-amino-4-(pyrrolidine-1-carbonyl)-3H-benzo[b]azepin-8-yl)phenyl)(pyrrolidin-1-yl)methanone] |
| 1000 to 10000 nM | NC1=Nc2cc(-c3ccc(C(=O)N4CCCC4)cc3)ccc2C=C(C(=O)N2CCCCC2)C1 [Compound 122, (4-((1E,4E)-2-amino-4-(piperidine-1-carbonyl)-3H-benzo[b]azepin-8-yl)phenyl)(pyrrolidin-1-yl)methanone] |
| 100 to 1000 nM | CCCN(CCC)C(=O)C1=Cc2ccc(-c3ccc(C(=O)N4C[C@H](O)[C@@H](O)C4)cc3)cc2N=C(N)C1 [Compound 129, (1E,4E)-2-amino-8-(4-((3S,4S)-3,4-dihydroxypyrrolidine-1-carbonyl)phenyl)-N,N-dipropyl-3H-benzo[b]azepine-4-carboxamide] |
| 100 to 1000 nM | CCCN(CCC)C(=O)C1=Cc2ccc(-c3ccc(C(=O)N4C[C@@H](O)[C@H](O)C4)cc3)cc2N=C(N)C1 [Compound 130, (1E,4E)-2-amino-8-(4-((3R,4R)-3,4-dihydroxypyrrolidine-1-carbonyl)phenyl)-N,N-dipropyl-3H-benzo[b]azepine-4-carboxamide] |
| 100 to 1000 nM | CCOC(=O)C1=Cc2ccc(-c3ccccn3)cc2N=C(N)C1 [Compound 141, (1E,4E)-ethyl 2-amino-8-(pyridin-2-yl)-3H-benzo[b]azepine-4-carboxylate] |
| 1 to 100 nM | CCOC(=O)C1=Cc2ccc(-c3cccc(C#N)c3)cc2N=C(N)C1 [Compound 145, (1E,4E)-ethyl 2-amino-8-(3-cyanophenyl)-3H-benzo[b]azepine-4-carboxylate] |
| 100 to 1000 nM | CCOC(=O)C1=Cc2ccc(-c3ccc(C#N)cc3)cc2N=C(N)C1 [Compound 146, (1E,4E)-ethyl 2-amino-8-(4-cyanophenyl)-3H-benzo[b]azepine-4-carboxylate] |
| 100 to 1000 nM | CCOC(=O)C1=Cc2ccc(-c3ccc(C(=O)N(CC)CC)cc3)cc2N=C(N)C1 [Compound 155, (1E,4E)-ethyl 2-amino-8-(4-(diethylcarbamoyl)phenyl)-3H-benzo[b]azepine-4-carboxylate] |
| 100 to 1000 nM | CCOC(=O)C1=Cc2ccc(-c3ccc(C(=O)N4CCCCC4)cc3)cc2N=C(N)C1 [Compound 156, (1E,4E)-ethyl 2-amino-8-(4-(piperidine-1-carbonyl)phenyl)-3H-benzo[b]azepine-4-carboxylate] |
| 1000 to 10000 nM | CCCN(CCNS(C)(=O)=O)C(=O)C1=Cc2ccc(-c3ccc(C(=O)N4CCCC4)cc3)cc2N=C(N)C1 [Compound 176, (1E,4E)-2-amino-N-(2-(methylsulfonamido)ethyl)-N-propyl-8-(4-(pyrrolidine-1-carbonyl)phenyl)-3H-benzo[b]azepine-4-carboxamide] |
| 10000 to 100000 nM | CCCN(CCC)C(=O)C1=Cc2ccc(-c3cccc(C(=O)O)c3)cc2N=C(N)C1 [Compound 186, 3-((1E,4E)-2-amino-4-(dipropylcarbamoyl)-3H-benzo[b]azepin-8-yl)benzoic acid] |
| 100 to 1000 nM | CCCN(CCC)C(=O)C1=Cc2ccc(-c3cccc(C(=O)OCC)c3)cc2N=C(N)C1 [Compound 187, Ethyl 3-((1E,4E)-2-amino-4-(dipropylcarbamoyl)-3H-benzo[b]azepin-8-yl)benzoate] |
| 1000 to 10000 nM | CCCN(CCC)C(=O)C1=Cc2ccc(-c3ccc(C(=O)O)cc3)cc2N=C(N)C1 [Compound 188, 4-((1E,4E)-2-amino-4-(dipropylcarbamoyl)-3H-benzo[b]azepin-8-yl)benzoic acid] |
| 100 to 1000 nM | CCCN(CCCF)C(=O)C1=Cc2ccc(-c3ccc(C(=O)N4CCCC4)cc3)cc2N=C(N)C1 [Compound 202, (1E,4E)-2-Amino-N-(3-fluoropropyl)-N-propyl-8-(4-(pyrrolidine-1-carbonyl)phenyl)-3H-benzo[b]azepine-4-carboxamide] |
| 1000 to 10000 nM | CCCN(CCCF)C(=O)C1=Cc2ccc(-c3ccc(C(=O)OCC)cc3)cc2N=C(N)C1 [Compound 208, Ethyl 4-((1E,4E)-2-amino-4-((3-fluoropropyl)(propyl)carbamoyl)-3H-benzo[b]azepin-8-yl)benzoate] |
| 10000 to 100000 nM | CCCN(CCCO)C(=O)C1=Cc2ccc(-c3ccc(C(=O)O)cc3)cc2N=C(N)C1 [Compound 209, 4-((1E,4E)-2-Amino-4-((3-hydroxypropyl)(propyl)carbamoyl)-3H-benzo[b]azepin-8-yl)benzoic acid] |
